The values below come from paper PMC3753068 (Small (Weinheim an der Bergstrasse, Germany), 2012).

As usually defined, the half-life is the time needed for the level to fall by half in the phase considered. Read a high half-life as slow decline.

Where a SMILES comes first, the peptide text is derived from it. The star is where a group is joined. X1 = O=C(CCCCCCCCCCS)NCCCOCCOCCOCCCN*

This data set in a line: Stability of peptides in human serum. Format: in vitro ADME.

On to `CC(=O)N[C@@H](CC(=O)O)C(=O)N[C@@H](CC(C)C)C(=O)N[C@@H](Cc1c[nH]c2ccccc12)C(=O)N[C@@H](CCCCN)C(=O)N[C@@H](CC(C)C)C(=O)NCCCOCCOCCOCCCNC(=O)CCCCCCCCCCS` [Compound 1] (Ac-DLWKL-X1; C-terminus assumed), for which the half-life is 17.5 min.
